What all share (experiment): biochemical
Holding throughout (parameters): KINOMEscan competition binding, DNA-tagged kinase against immobilised ligand, qPCR read-out
Conditions in all cases: read-out: Percent Control
On the technique in general: Quantitative PCR measures a nucleic acid by following its amplification.

Assay [1] concerns the target NEK3 (Homo sapiens, UniProt P51956).
Assay [2] deals with PRKD2 (Homo sapiens, UniProt Q9BZL6).
Assay [3] addresses TSSK1B (Homo sapiens, UniProt Q9BXA7).
Assay [4] concerns the target CAMK2A (Homo sapiens, UniProt Q9UQM7).
Assay [5] deals with PAK6 (Homo sapiens, UniProt Q9NQU5).
Chain of PAK6 (Q9NQU5 whole entry): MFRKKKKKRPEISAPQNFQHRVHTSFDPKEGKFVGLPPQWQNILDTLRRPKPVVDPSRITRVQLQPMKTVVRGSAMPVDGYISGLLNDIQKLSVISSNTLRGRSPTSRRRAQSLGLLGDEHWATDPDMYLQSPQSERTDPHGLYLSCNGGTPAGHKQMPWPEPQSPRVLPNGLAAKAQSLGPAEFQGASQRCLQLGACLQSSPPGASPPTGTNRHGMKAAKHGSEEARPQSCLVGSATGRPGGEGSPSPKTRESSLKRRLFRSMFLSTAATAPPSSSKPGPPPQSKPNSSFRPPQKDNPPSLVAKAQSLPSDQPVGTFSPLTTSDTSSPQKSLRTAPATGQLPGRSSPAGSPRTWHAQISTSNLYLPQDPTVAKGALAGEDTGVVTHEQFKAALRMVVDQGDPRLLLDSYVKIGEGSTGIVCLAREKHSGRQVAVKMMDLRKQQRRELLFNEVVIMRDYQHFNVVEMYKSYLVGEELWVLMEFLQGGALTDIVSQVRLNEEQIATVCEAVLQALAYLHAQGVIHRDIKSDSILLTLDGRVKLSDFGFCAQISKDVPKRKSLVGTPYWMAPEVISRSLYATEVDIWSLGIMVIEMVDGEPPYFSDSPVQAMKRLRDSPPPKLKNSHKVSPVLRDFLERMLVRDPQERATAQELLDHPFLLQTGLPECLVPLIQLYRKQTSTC
The target of assay [6] is TLK2 (Homo sapiens, UniProt Q86UE8).
Chain of TLK2 (Q86UE8 whole entry): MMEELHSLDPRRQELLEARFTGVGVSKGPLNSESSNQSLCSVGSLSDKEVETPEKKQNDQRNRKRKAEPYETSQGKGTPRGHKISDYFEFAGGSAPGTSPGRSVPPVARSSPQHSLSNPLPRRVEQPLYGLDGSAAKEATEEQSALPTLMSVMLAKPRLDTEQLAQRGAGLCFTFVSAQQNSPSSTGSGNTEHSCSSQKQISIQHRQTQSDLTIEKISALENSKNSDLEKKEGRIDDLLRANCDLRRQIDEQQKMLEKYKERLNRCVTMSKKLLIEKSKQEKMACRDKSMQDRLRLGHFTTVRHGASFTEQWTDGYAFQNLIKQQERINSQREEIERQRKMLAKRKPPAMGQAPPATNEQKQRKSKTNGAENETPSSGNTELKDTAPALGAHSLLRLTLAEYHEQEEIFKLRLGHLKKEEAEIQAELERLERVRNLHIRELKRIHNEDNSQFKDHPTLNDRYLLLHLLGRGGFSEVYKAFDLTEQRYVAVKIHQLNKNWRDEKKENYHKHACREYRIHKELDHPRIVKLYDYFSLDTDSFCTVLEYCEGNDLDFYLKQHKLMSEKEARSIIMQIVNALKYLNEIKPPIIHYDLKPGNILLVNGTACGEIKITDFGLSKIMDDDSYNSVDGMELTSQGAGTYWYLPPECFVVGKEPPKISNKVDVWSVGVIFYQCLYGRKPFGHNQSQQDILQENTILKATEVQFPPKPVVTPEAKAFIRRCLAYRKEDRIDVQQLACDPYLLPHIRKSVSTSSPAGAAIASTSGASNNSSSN
Assay [7] addresses GRK4 (Homo sapiens, UniProt P32298).
Assay [8] has as its target MAP4K1 (Homo sapiens, UniProt Q92918).
Assay [9] concerns the target BMPR1B (Homo sapiens, UniProt O00238).
In assay [10] the target is ERBB2 (Homo sapiens, UniProt P04626).
For assay [11], the target named is NUAK1 (Homo sapiens, UniProt O60285).
Assay [12] addresses AKT3 (Homo sapiens, UniProt Q9Y243).
Assay [13] concerns the target CAMK2G (Homo sapiens, UniProt Q13555).
Assay [14] addresses CDKL5 (Homo sapiens, UniProt O76039).
Assay [15] deals with CSK (Homo sapiens, UniProt P41240).
Chain of CSK (P41240 whole entry): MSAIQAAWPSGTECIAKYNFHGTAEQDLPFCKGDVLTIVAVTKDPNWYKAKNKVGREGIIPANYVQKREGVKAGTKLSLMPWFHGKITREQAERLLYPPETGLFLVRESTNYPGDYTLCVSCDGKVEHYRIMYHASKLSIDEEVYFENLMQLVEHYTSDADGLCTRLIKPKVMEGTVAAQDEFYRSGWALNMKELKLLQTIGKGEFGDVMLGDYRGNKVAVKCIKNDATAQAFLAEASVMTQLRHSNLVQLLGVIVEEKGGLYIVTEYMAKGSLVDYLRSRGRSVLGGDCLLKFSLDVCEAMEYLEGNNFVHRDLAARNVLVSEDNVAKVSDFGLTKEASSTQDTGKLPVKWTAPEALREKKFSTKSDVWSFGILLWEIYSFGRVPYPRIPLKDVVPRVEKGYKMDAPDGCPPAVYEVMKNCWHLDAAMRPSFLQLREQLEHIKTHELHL
The target of assay [16] is DCLK1 (Homo sapiens, UniProt O15075).
Assay [17] has as its target T1, MGC42105 (Homo sapiens, UniProt Q8IY84).
T1 construct: gene NIM1K

In assay [18] the target is EPHA3 (Homo sapiens, UniProt P29320).
The target in assay [19] is CAMK1 (Homo sapiens, UniProt Q14012).
Chain of CAMK1 (Q14012 whole entry): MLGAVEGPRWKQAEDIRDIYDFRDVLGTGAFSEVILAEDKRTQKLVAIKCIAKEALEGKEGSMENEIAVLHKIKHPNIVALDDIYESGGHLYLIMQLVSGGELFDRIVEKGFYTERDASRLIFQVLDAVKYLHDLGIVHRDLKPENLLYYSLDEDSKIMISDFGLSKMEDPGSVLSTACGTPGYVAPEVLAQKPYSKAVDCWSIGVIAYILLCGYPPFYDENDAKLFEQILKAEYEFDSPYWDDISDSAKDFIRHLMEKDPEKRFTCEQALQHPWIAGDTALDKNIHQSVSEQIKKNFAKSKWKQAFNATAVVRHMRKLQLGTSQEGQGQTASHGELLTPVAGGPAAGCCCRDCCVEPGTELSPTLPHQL
In assay [20] the target is MAPK12 (Homo sapiens, UniProt P53778).
Chain of MAPK12 (P53778 whole entry): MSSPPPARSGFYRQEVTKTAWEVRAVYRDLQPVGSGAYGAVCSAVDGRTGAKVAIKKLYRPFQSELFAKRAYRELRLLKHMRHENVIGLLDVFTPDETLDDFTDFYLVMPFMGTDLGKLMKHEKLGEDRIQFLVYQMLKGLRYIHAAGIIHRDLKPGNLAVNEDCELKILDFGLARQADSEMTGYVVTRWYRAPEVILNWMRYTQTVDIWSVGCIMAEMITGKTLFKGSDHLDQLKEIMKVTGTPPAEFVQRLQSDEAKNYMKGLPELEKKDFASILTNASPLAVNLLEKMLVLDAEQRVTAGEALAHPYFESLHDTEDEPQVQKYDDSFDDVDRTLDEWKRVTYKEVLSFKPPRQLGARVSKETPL

Chain of AKT3 (Q9Y243 whole entry): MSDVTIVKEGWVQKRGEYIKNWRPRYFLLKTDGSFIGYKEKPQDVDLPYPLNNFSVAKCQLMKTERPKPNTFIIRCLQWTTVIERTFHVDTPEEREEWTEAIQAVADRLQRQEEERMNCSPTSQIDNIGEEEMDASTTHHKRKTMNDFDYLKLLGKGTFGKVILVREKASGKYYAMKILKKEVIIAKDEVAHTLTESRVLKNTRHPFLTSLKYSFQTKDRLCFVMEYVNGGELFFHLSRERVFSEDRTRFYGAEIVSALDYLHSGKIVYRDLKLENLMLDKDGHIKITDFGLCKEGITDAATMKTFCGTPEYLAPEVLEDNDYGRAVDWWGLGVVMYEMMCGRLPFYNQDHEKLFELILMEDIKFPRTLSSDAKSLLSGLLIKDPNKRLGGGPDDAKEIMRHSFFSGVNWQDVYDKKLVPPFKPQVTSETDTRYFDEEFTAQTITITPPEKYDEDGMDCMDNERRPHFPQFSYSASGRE
Chain of MAP4K1 (Q92918 whole entry): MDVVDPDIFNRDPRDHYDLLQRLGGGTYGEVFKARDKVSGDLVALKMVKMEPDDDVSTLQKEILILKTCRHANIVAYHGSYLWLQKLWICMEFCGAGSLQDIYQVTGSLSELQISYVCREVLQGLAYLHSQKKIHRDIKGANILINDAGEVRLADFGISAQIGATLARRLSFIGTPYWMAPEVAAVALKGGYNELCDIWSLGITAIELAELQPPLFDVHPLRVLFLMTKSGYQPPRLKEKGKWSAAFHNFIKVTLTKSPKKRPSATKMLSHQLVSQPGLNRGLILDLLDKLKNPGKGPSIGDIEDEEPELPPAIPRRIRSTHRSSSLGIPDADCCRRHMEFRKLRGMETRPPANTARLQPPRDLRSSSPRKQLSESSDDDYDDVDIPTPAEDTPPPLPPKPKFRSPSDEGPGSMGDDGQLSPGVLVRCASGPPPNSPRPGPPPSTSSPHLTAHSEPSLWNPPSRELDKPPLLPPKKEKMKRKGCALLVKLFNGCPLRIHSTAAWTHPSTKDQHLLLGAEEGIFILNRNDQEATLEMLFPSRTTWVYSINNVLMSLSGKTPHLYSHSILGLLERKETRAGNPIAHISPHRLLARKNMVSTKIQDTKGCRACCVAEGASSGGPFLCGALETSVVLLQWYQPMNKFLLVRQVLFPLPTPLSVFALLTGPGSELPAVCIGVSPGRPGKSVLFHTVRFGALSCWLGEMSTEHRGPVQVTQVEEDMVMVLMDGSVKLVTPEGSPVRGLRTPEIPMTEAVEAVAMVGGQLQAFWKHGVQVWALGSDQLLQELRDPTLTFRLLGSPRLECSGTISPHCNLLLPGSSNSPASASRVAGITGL
Chain of TSSK1B (Q9BXA7 whole entry): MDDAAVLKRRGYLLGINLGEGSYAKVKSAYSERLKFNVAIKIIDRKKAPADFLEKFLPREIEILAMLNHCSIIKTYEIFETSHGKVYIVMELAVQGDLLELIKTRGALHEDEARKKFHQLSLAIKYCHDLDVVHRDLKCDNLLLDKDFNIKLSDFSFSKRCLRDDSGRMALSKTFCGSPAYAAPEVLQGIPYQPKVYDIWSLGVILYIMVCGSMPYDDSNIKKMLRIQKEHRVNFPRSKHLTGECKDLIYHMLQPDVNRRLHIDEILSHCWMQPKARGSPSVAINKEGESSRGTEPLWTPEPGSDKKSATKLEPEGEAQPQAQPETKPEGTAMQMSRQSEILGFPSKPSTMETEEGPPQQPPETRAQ
T1 sequence (Q8IY84 whole entry): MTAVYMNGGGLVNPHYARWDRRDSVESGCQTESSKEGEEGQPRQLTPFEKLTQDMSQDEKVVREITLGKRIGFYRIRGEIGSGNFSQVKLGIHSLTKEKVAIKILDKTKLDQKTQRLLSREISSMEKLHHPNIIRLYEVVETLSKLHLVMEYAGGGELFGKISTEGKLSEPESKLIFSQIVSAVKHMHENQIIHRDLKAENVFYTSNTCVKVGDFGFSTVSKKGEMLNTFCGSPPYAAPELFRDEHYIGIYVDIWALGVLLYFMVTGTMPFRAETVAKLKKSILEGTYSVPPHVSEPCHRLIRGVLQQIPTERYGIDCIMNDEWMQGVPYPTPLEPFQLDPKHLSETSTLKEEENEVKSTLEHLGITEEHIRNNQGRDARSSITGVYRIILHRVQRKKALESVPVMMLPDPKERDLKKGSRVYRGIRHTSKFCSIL

For the compound `Oc1ccc(C2=Cc3ccc(O)cc3OC2)cc1` [compound 1, idronoxil], the remaining binding at 10 µM worked out at 80% in [1]; 94% in assay [2]; 87% in assay [3]; 87% in assay [4]; 100% in assay [5]; 86% in [6]. The remaining binding at 10 µM in [7] stood at 68%; in [8], 78%; in assay [9], 66%; in assay [10], 88%; in [11], 97%; in assay [12] it was 84%. Moreover, the remaining binding at 10 µM was found to be 85% in assay [13]; 97% in [14]; 100% in assay [15]; 100% in [16]; 93% in assay [17]; 89% in [18]. The remaining binding at 10 µM came out at 96% in assay [19] and 100% in [20].

The record behind these values is paper PMC10507085, “Pharmacological inhibition of TBK1/IKKε blunts immunopathology in a murine model of SARS-CoV-2 infection” (Nature Communications, 2023).
